The values that follow are results of earlier work, collected in US20260373193A1, “CARCINOGENESIS REDUCTION WITH PENTAAZA MACROCYLIC RING COMPLEX” (GALERA LABS, LLC, priority 2023, published 2026).

One data set concerns established tumors. To be noted: cited from earlier work.
Data set [1] concerns radiation-induced oral mucositis. Particulars: hamster; cited from earlier work.
Another data set relates to colon of rats. Particulars: experimental colitis; cited from earlier work.
The next data set deals with inflammation. To be noted: rat; cited from earlier work.
For data set [2], the system named is acute and sub-chronic radiation damage; platinum therapy kidney damage. To be noted: mucositis, pulmonary pneumonitis and fibrosis, liver damage; cited from earlier work.
For a further data set, the system named is radiation damage. Particulars: adult mice; cited from earlier work.
The subject of data set [3] is collagen-induced arthritis. To be noted: rat collagen-induced arthritis; cited from earlier work.

`[Cl-].[Cl-].[Mn+2].c1cc2nc(c1)CN[C@@H]1CCCC[C@H]1NCCN[C@@H]1CCCC[C@H]1NC2` [GC4403]: the “efficacy of radiation and other therapies” value in the data set with established tumors was “enhance the efficacy of radiation and other therapies”. For the same molecule, the radiation-induced oral mucositis result in data set [1] was “attenuate the radiation damage”. For the same molecule, the “injury to the colon” value with colon of rats is recorded as “very significantly reduce the injury to the colon of rats”. Besides, the inflammation result in the data set with inflammation is “inhibit inflammation”. For the same molecule, the “overt acute and sub-chronic radiation damage; platinum therapy kidney damage” value in data set [2] is “reduce overt acute and sub-chronic radiation damage”. For the same molecule, the “radiation damage, lethal total body irradiation” value in the data set with radiation damage is given as “attenuate the radiation damage”. Further, the joint disease result in data set [3] was “prevent joint disease”.
`CCC(=O)[O-].CCC(=O)[O-].[Mn+2].c1cc2nc(c1)CN[C@H]1CCCC[C@@H]1NCCN[C@H]1CCCC[C@@H]1NC2` [GC4711]: the “efficacy of radiation and other therapies” value with established tumors was “enhance the efficacy of radiation and other therapies”. Also, in data set [2], the “overt acute and sub-chronic radiation damage; platinum therapy kidney damage” value was “reduce overt acute and sub-chronic radiation damage”.
